These results are taken from patent publication US20150011566A1, “N-PHENYLPIPERAZINE DERIVATIVES THAT ARE ANTAGONISTS OF A1A, A1D ADRENOCEPTORS AND 5-HT1A RECEPTORS FOR THE TREATMENT OF BENIGN PROSTATE HYPERPLASIA, PHARMACEUTICAL COMPOSITIONS CONTAINING THE SAME” (UNIVERSIDADE FEDERAL DO RIO DE JANEIRO-UFRJ, priority 2012, published 2015).

Each structure is given as a SMILES string. Where two headings read alike, the source gives them in different places.

One assay deals with T1, 5-HT1A receptors (Rattus norvegicus, UniProt P19327).
T1 construct: Intrinsic Activity at Native 5-HT1A Receptors; from tissue; host or cells: rat hippocampus membranes
T1 sequence (P19327 1-422): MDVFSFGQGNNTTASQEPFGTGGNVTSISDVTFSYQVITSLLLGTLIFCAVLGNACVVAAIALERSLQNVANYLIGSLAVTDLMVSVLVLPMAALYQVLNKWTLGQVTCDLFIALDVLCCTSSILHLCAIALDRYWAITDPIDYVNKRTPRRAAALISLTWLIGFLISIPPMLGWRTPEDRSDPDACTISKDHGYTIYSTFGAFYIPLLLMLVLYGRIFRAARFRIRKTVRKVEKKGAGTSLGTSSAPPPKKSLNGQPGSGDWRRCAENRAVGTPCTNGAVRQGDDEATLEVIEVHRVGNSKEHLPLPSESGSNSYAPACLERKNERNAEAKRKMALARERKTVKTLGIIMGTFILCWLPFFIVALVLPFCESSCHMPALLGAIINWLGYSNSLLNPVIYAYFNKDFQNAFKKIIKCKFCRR
As to the kind of experiment: Binding of [3H]-8-OH-DPAT to 5-HT1A receptors (rat hippocampus membranes). The method, then: Membrane preparations of rat hippocampus according to previously described by HALL et al (1985) and PEROUTKA (1986) were performed. The homogenization and centrifugation steps were performed identically to that described above for receptors α2A and 5-HT2A receptors.
The binding assays for the 5-HT1A receptors were performed as described previously in the literature and previously standardized in the laboratory through saturation experiments. […] (solvent for dilution of LDT's) for the determination of total binding, or 50 μL non-radioative serotonin at 10 μM to determine the non-specific binding (final volume of 500 μL). Assays were performed in triplicate. […] Assays were performed in triplicate.
After the incubation period, the reaction was stopped by adding 4 ml of ice-cold solution containing 5 mM Tris (pH 7.4), followed by vacuum filtration on glass fiber filter (GMF 3, Filtrak®) previously soaked with solution 0.5% polyethylenoimine. The filters were washed three times with 4 mL of ice-cold solution containing 5 mM Tris (pH 7.4) under vacuum to remove all free radioligand. Then the filters were dried and placed in vials containing 5 ml scintillation fluid (composition: 4% PPO, 0.1% POPOP w/p in toluene). The radioactivity retained on the filters was then determined in a liquid scintillation counter (Packard Tri-Carb 1600 TR). […] For these receptors were also determined the […] and Ki parameters.

The target of the next assay is T2, α1B adrenoceptors (Rattus norvegicus, UniProt P15823).
T2 construct: from tissue; host or cells: rat liver membranes
T2 sequence (P15823 1-515): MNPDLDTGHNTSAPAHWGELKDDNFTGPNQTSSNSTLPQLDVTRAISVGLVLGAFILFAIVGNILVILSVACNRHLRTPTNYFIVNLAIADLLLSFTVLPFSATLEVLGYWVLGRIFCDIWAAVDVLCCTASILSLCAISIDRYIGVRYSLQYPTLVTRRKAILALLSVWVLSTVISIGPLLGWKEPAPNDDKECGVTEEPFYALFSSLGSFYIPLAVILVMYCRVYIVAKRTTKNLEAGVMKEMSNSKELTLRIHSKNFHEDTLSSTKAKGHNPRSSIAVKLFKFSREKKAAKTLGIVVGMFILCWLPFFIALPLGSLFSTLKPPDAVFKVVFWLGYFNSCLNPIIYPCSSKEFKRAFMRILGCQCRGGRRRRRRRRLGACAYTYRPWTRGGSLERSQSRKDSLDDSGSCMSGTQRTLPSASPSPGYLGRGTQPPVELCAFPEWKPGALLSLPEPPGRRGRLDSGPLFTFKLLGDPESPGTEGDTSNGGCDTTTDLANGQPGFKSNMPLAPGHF
Put plainly: Binding of [3H]-prazosin to α1B adrenoceptors (rat liver membranes). Particulars: for affinity range for α1B adrenoceptor: in words. The method, then:
Following the protocol described previously in the literature membrane preparations from rat liver homogenates were obtained. Such membrane preparations are enriched in the adrenoceptor subtype α1B. The tissues obtained as described above (4 Rat livers corresponding to ˜30 g) were thawed and homogenized perforated similarly performed for rabbit liver. The homogenate obtained was filtered through four layers of gauze and then subjected to centrifugation 5,000×g for 20 minutes at 4° C., yielding a supernatant which was subsequently ultracentrifuged at 100,000×g for 60 minutes at 4° C., obtaining a pellet. This pellet was resuspended in buffer free of NaCl and subjected to a further […] under the same conditions.
Binding assays were standardized for α1B adrenoceptors in the same way adrenoceptor binding assays for α1A according to the literature, i.e. saturation and competition assays were performed on membrane preparations from rat liver, in this case using […] protein per tube contained […] suspension, in addition to various concentrations of LDT's (10^−9-10^−6 M).

[1] abbreviates: Ki high (nM), Table 13, agonist radioligand [3H] 8-OH-DPAT.
[2] abbreviates: Table 4, Cheng-Prusoff, read-out: Ki.
[3] abbreviates: Table 4, read-out: log CI50 ± EPM (converted).
Where [4] appears, read: Table 8, Cheng-Prusoff, read-out: Ki.
Where [5] appears, read: Table 5, Cheng-Prusoff, read-out: α1B Ki.
Where [6] appears, read: Table 9, agonist radioligand [3H] 8-OH-DPAT, read-out: Ki high.

For the compound `COc1ccccc1N1CCN(CCc2ccccc2)CC1` [LDT 2], the IC50 at 5-HT1A receptors was 3.02 nM; on α1B adrenoceptors, 63.1 nM. For the same compound, the Ki on 5-HT1A receptors (KI (M), Table 7, Cheng-Prusoff) turned out to be 1.24e-09 M; on α1B adrenoceptors, 48.7 nM.
Turning to `COc1cccc(CCN2CCN(c3ccccc3OC)CC2)c1` [LDT 3], the values for the IC50 on 5-HT1A receptors and on α1B adrenoceptors were 2.75 nM and 95.5 nM, respectively. The Ki at 5-HT1A receptors (KI (M), Table 7, Cheng-Prusoff) amounted to 1.13e-09 M; at 5-HT1A receptors (setting [1]) it was 1.79e-09 M; at α1B adrenoceptors, 73.7 nM.
As to `COc1ccc(CCN2CCN(c3ccccc3OC)CC2)cc1` [LDT 4], the IC50 was 2.4 nM on 5-HT1A receptors and 30.2 nM at α1B adrenoceptors. The Ki amounted to 9.88e-10 M at 5-HT1A receptors (KI (M), Table 7, Cheng-Prusoff) and 23.3 nM at α1B adrenoceptors.
Take `COc1ccc(CCN2CCN(c3ccccc3OC)CC2)cc1OC` [LDT 5]: the IC50 was 6.17 nM at 5-HT1A receptors and 15.8 nM at α1B adrenoceptors (setting [3]). Moreover, the Ki at 5-HT1A receptors (KI (M), Table 7, Cheng-Prusoff) is 2.54e-09 M; at 5-HT1A receptors (setting [1]), 3.89e-09 M; on α1B adrenoceptors (setting [2]), 12.2 nM.
With `COc1ccccc1N1CCN(CCC2CCCCC2)CC1` [LDT 6], the Ki on 5-HT1A receptors (Table 7, Cheng-Prusoff, read-out: KI) was found to be 2.42e-10 M; on α1B adrenoceptors (setting [2]) it was 154 nM. In addition, the IC50 at 5-HT1A receptors (Table 7, read-out: log CI50 ± EPM (converted)) is 0.589 nM; on α1B adrenoceptors (setting [3]) it was 200 nM. Also, on α1B adrenoceptors, the “affinity range for α1B adrenoceptor” value is “range μM”.
For the compound `CCOc1ccccc1N1CCN(CCc2ccc3c(c2)OCO3)CC1` [LDT 8], the IC50 is 0.0575 nM on 5-HT1A receptors and 11.7 nM on α1B adrenoceptors. Also, the Ki is 1.8e-11 M at 5-HT1A receptors (setting [1]); 2.37e-11 M at 5-HT1A receptors (Ki, text b157); 9.07 nM on α1B adrenoceptors. Moreover, on α1B adrenoceptors, the “affinity range for α1B adrenoceptor” value was “nanomolar range”.
Turning to `CCN1CCN(c2ccccc2)CC1` [LDT 39], at 5-HT1A receptors (Table 8), the “log IC50 (M)” value is −5.93 ± 0.13 M. For the same compound, the figures for the Ki at 5-HT1A receptors (setting [4]) and on α1B adrenoceptors (setting [5]) were 5.2e-07 M and 425 nM, respectively. Moreover, the “α1B log IC50 (M)” value at α1B adrenoceptors (Table 5) was −6.29 ± 0.10 M.
The matching figures for `CCN1CCN(c2ccccc2OC)CC1` [LDT 62]: −6.47 ± 0.10 M, 1.47e-07 M, 448 nM and −6.27 ± 0.05 M.
With `CCCN1CCN(c2ccccc2OC)CC1` [LDT 63], on 5-HT1A receptors (Table 8), the “log IC50 (M)” value is given as −6.37 ± 0.03 M. The values for the Ki at 5-HT1A receptors (setting [4]) and on α1B adrenoceptors (setting [5]) were 1.91e-07 M and 511 nM, respectively. Besides, on α1B adrenoceptors (Table 5), the “α1B log IC50 (M)” value is −6.22 ± 0.05 M.
The matching figures for `CCCCN1CCN(c2ccccc2OC)CC1` [LDT 64]: −6.72 ± 0.19 M, 8.4e-08 M, 393 nM and −6.33 ± 0.16 M.
As for `CCCCCN1CCN(c2ccccc2OC)CC1` [LDT 65], the IC50 at 5-HT1A receptors is 38 nM; on α1B adrenoceptors it was 331 nM. Also, the Ki amounted to 1.8e-08 M on 5-HT1A receptors (Ki (nM), Table 8, Cheng-Prusoff); 1.8e-08 M on 5-HT1A receptors (Ki high (nM), Table 9, agonist radioligand [3H] 8-OH-DPAT); 277 nM on α1B adrenoceptors.
On to `CCCCCCN1CCN(c2ccccc2OC)CC1` [LDT 66], for which, on 5-HT1A receptors (Table 8), the “log IC50 (M)” value is reported as −7.93 ± 0.20a M. The Ki stood at 5e-09 M at 5-HT1A receptors (setting [4]), 5e-09 M at 5-HT1A receptors (setting [6]) and 221 nM on α1B adrenoceptors (setting [5]). For the same compound, the “α1B log IC50 (M)” value on α1B adrenoceptors (Table 5) was −6.51 ± 0.18 M.
With `CCCCCCCN1CCN(c2ccccc2OC)CC1` [LDT 67], on 5-HT1A receptors (Table 8), the “log IC50 (M)” value is reported as −7.42 ± 0.19b M. Further, the values for the Ki at 5-HT1A receptors (setting [4]), on 5-HT1A receptors (setting [6]) and at α1B adrenoceptors (setting [5]) were 1.8e-08 M, 1.8e-08 M and 113 nM, respectively. On α1B adrenoceptors (Table 5), the “α1B log IC50 (M)” value is −6.87 ± 0.10 M.
Take `CCCCCCCCN1CCN(c2ccccc2OC)CC1` [LDT 68]: on 5-HT1A receptors (Table 8), the “log IC50 (M)” value was −7.70 ± 0.30b M. The Ki at 5-HT1A receptors (setting [4]) worked out at 9e-09 M; at 5-HT1A receptors (setting [6]), 9e-09 M; at α1B adrenoceptors (setting [5]) it was 173 nM. The “α1B log IC50 (M)” value on α1B adrenoceptors (Table 5) is on record as −6.69 ± 0.10 M.
For `CCOc1ccccc1N1CCN(CC)CC1` [LDT 69], the “log IC50 (M)” value on 5-HT1A receptors (Table 8) was −6.86 ± 0.30 M. In addition, the results for the Ki at 5-HT1A receptors (setting [4]) and at α1B adrenoceptors (setting [5]) were 6.2e-08 M and 185 nM, respectively. Also, the “α1B log IC50 (M)” value on α1B adrenoceptors (Table 5) is given as −6.53 ± 0.11 M.
Take `CCN1CCN(c2ccccc2O)CC1` [LDT 70]: the “log IC50 (M)” value at 5-HT1A receptors (Table 8) is given as −6.15 ± 0.08 M. The results for the Ki at 5-HT1A receptors (setting [4]) and on α1B adrenoceptors (setting [5]) were 3.16e-07 M and 715 nM, respectively. Besides, the “α1B log IC50 (M)” value at α1B adrenoceptors (Table 5) is on record as −6.07 ± 0.10 M.
On 5-HT1A receptors, `CCOc1ccccc1N1CCN(CCc2ccc(OC)c(OC)c2)CC1` [LDT 245] had an IC50 of 9.33 nM. Moreover, on 5-HT1A receptors (KI (M), Table 7, Cheng-Prusoff), the Ki turned out to be 3.8e-09 M.

A word on the Ki: it is the dissociation constant of the complex between target and ligand, obtained from inhibition or displacement.
